According to PubChem BioAssay AID202 (DTP/NCI, 2004):
“And” between values parts separate entries of the source, which are not always exact repeats. Equal values may be shown once. *1 amine or outer side, *2 acyl side, *3 side chain or, on linkers, in order; H or OH if unused. Where a SMILES comes first, the peptide text is derived from it. Bridges are numbered along the chain shown (N, C = ends). Roman numbers before positions name the chains, in order. [ ]: non-standard residue; d: D form. Actinocin(9to1) = Cc1c2oc3c(C)ccc(C(=O)[*:1])c3nc-2c(C(=O)[*:2])c(N)c1=O; aThr = C[C@H](O)[C@H](N)C(=O)O; NMeV = CN[C@H](C(=O)O)C(C)C; Sar = CNCC(=O)O

Tested on: HT29 xenograft, nude mice, s.c., tumor weight T/C%
Test: NCI In Vivo Anticancer Drug Screen. Data for tumor model HT29;CX-1 Human Adenocarcinoma (MER+) (subcutaneous) in NU/NU Swiss (nude) mice
Conditions: endpoint: optimum tumor weight change, higher = larger tumour
Experimental: The antitumor activity of compounds was measured in mice bearing transplantable tumors. Survival or tumor size were measured and the results are expressed as the measurement made in the treated group (T) divided by the measurement made in the vehicle treated control group (C). The tumor model used in this assay is HT29;CX-1 Human Adenocarcinoma (MER+) (subcutaneous) in NU/NU Swiss (nude) mice

[1] = dose: 12.5 mg/kg/injection, schedule: Q04DX003 (ip), vehicle: saline
[2] = dose: 25.0 mg/kg/injection, schedule: Q04DX003 (ip), vehicle: saline
[3] = dose: 25.0 mg/kg/injection, schedule: Q04DX003 (ip), vehicle: Klucel (hydroxypropylcellulose) (HPC)
[4] = dose: 50.0 mg/kg/injection, schedule: Q04DX003 (ip), vehicle: Klucel (hydroxypropylcellulose) (HPC)
[5] = dose: 100.0 mg/kg/injection, schedule: Q04DX003 (ip), vehicle: Klucel (hydroxypropylcellulose) (HPC)
[6] = dose: 200.0 mg/kg/injection, schedule: Q04DX003 (ip), vehicle: Klucel (hydroxypropylcellulose) (HPC)
[7] = dose: 100.0 mg/kg/injection, schedule: Q04DX003 (ip), vehicle: saline
[8] = dose: 200.0 mg/kg/injection, schedule: Q04DX003 (ip), vehicle: saline
[9] = dose: 100.0 mg/kg/injection, schedule: Q04DX003 (ip), vehicle: suspension in saline
[10] = dose: 200.0 mg/kg/injection, schedule: Q04DX003 (ip), vehicle: suspension in saline
[11] = dose: 50.0 mg/kg/injection, schedule: Q04DX003 (ip), vehicle: saline

Which T/C (dose: 0.5 mg/kg/injection, schedule: Q04DX003 (ip), vehicle: saline) does the source give for `Cc1c(N)nc(C(CC(N)=O)NCC(N)C(N)=O)nc1C(=O)NC(C(=O)NC(C)C(O)CC(=O)NC(C(=O)NC(OC1OC(C)C(N)C(O)C1O)C(O)c1nc(-c2nc(C(=O)NCCCC(N)CC(=O)NCCCNCCCCN)cs2)cs1)C(C)O)C(OC1OC(CO)C(O)C(O)C1OC1OC(CO)C(O)C(OC(N)=O)C1O)c1cnc[nH]1` (centres undefined) here?
Its T/C is 92 % of control.

And the T/C (dose: 1.0 mg/kg/injection, schedule: Q04DX003 (ip), vehicle: saline)?
The T/C was 45 % of control.

What about the T/C (dose: 2.0 mg/kg/injection, schedule: Q04DX003 (ip), vehicle: saline) of the same molecule?
The T/C was 39 % of control.

Which results are given for `COc1cccc2c1C(=O)c1c(O)c3c(c(O)c1C2=O)C[C@@](O)(/C(C)=N\O)C[C@@H]3OC1CC(N)C(O)C(C)O1` (some centres undefined)?
T/C (dose: 6.25 mg/kg/injection, schedule: Q04DX003 (ip), vehicle: saline): 68 % of control; T/C [1]: 63 % of control; T/C [2]: 56 % of control

Which T/C (dose: 50.0 mg/kg/injection, schedule: Q04DX003 (ip), vehicle: suspension in saline) does the source give for `N=C(N)SCc1c2ccccc2c(CSC(=N)N)c2ccccc12` here?
Its T/C is 88 % of control.

Which results are given for `Cc1c(N)nc([C@H](CC(N)=O)NC[C@H](N)C(N)=O)nc1C(=O)N[C@H](C(=O)N[C@H](C)[C@@H](O)[C@H](C)C(=O)N[C@H](C(=O)NCCc1nc(-c2nc(C(=O)NCCC[S+](C)C)cs2)cs1)[C@@H](C)O)C(OC1OC(CO)C(O)C(O)C1OC1OC(CO)C(O)C(OC(N)=O)C1O)c1cnc[nH]1` (some centres undefined)?
T/C (dose: 3.75 mg/kg/injection, schedule: Q04DX003 (ip), vehicle: saline): 71 % of control; T/C (dose: 4.0 mg/kg/injection, schedule: Q04DX003 (ip), vehicle: saline): 64 % of control; T/C (dose: 7.5 mg/kg/injection, schedule: Q04DX003 (ip), vehicle: saline): 50 % of control and 70 % of control; T/C (dose: 7.5 mg/kg/injection, schedule: Q04DX004 (ip), vehicle: saline): 37 % of control; T/C (dose: 8.0 mg/kg/injection, schedule: Q04DX003 (ip), vehicle: saline): 49 % of control; T/C (dose: 15.0 mg/kg/injection, schedule: Q04DX004 (ip), vehicle: saline): 26 % of control; T/C (dose: 16.0 mg/kg/injection, schedule: Q04DX003 (ip), vehicle: saline): 28 % of control and 33 % of control; T/C (dose: 32.0 mg/kg/injection, schedule: Q04DX003 (ip), vehicle: saline): 11 % of control

What does the source list for `COc1cc([C@@H]2c3cc4c(c(O)c3C[C@H]3COC(=O)[C@@H]32)OCO4)cc(OC)c1OC`?
T/C (dose: 2.5 mg/kg/injection, schedule: Q04DX003 (ip), vehicle: saline): 83 % of control; T/C (dose: 5.0 mg/kg/injection, schedule: Q04DX003 (ip), vehicle: saline): 114 % of control; T/C (dose: 10.0 mg/kg/injection, schedule: Q04DX003 (ip), vehicle: saline): 52 % of control

What does the source list for `CC(=O)OCC1OC(n2cc(CBr)nn2)C(OC(C)=O)C(OC(C)=O)C1OC(C)=O` (centres undefined)?
T/C (dose: 50.0 mg/kg/injection, schedule: Q04DX003 (ip), vehicle: saline with Tween-80): 78 % of control; T/C (dose: 100.0 mg/kg/injection, schedule: Q04DX003 (ip), vehicle: saline with Tween-80): 92 % of control; T/C (dose: 200.0 mg/kg/injection, schedule: Q04DX003 (ip), vehicle: saline with Tween-80): 69 % of control

With `O=S(CCCl)CCCl` as the molecule, how does the T/C [3] read?
The T/C was 72 % of control.

What about the T/C [4] of the same molecule?
The T/C was 51 % of control.

And the T/C [5]?
Its T/C is 65 % of control.

How did the T/C (dose: 0.25 mg/kg/injection, schedule: Q04DX003 (ip), vehicle: water) turn out when `CC1OC(OC2CC(O)(C(=O)CO)Cc3c(O)c4c(c(O)c32)C(=O)c2ccccc2C4=O)CC(N)C1O` (centres undefined) was run?
The T/C was 89 % of control.

With `Cc1c2oc3c(C)ccc(C(=O)N[C@@H]4C(=O)N[C@H](C(C)C)C(=O)N5CCC[C@H]5C(=O)N(C)CC(=O)N(C)[C@@H](C(C)C)C(=O)O[C@H]4C)c3nc-2c(C(=O)N[C@@H]2C(=O)N[C@H](C(C)C)C(=O)N3CCC[C@H]3C(=O)N(C)CC(=O)N(C)[C@@H](C(C)C)C(=O)O[C@H]2C)c(N)c1=O` (I: [aThr][dV]P[Sar][NMeV] / II: [aThr][dV]P[Sar][NMeV]; ester I:1-I:C, II:1-II:C; linker I:N-II:N via Actinocin(9to1)) as the molecule, how does the T/C (dose: 150.0 micrograms/kg/injection, schedule: Q04DX003 (ip), vehicle: saline) read?
Its T/C is 54 % of control.

What about the T/C (dose: 300.0 micrograms/kg/injection, schedule: Q04DX003 (ip), vehicle: saline) of the same molecule?
The T/C was 42 % of control.

`CS(=O)(=O)OCCN(CCOS(C)(=O)=O)c1ccc(C=Nc2ccc(-c3csc(COc4ccccc4)n3)cc2)cc1` was tested. Which T/C [5] did it give?
The T/C was 71 % of control.

And the T/C [6]?
Its T/C is 70 % of control.

For `COc1cc2c[n+](C)c3c4cc5c(cc4ccc3c2cc1OC)OCO5`, which T/C (dose: 20.0 mg/kg/injection, schedule: Q04DX003 (ip), vehicle: saline with Tween-80) is on record?
Its T/C is 111 % of control.

What about the T/C (dose: 40.0 mg/kg/injection, schedule: Q04DX003 (ip), vehicle: saline with Tween-80) of the same molecule?
The T/C was 124 % of control.

What about the T/C (dose: 80.0 mg/kg/injection, schedule: Q04DX003 (ip), vehicle: saline with Tween-80) of the same molecule?
Its T/C is 50 % of control.

`CN(N=O)C(=O)N[C@@H](C=O)[C@@H](O)[C@H](O)[C@H](O)CO` was tested. Which T/C [7] did it give?
Its T/C is 82 % of control.

And the T/C [8]?
The T/C was 98 % of control.

Which T/C [3] does the source give for `CCOC(=O)C1C2OC(=O)C(C(=O)C2CN(CCCl)CCCl)C1C1CC=C(CC2=CCC(C3C4C(=O)OC(C(CN(CCCl)CCCl)C4=O)C3C(=O)OCC)CC2)CC1` (centres undefined) here?
Its T/C is 91 % of control.

What about the T/C [4] of the same molecule?
Its T/C is 66 % of control.

And the T/C [5]?
Its T/C is 69 % of control.

What does the source list for `O=C(O)CP(=O)(O)O`?
T/C (dose: 800.0 mg/kg/injection, schedule: Q04DX003 (ip), vehicle: saline): 94 % of control; T/C (dose: 1600.0 mg/kg/injection, schedule: Q04DX003 (ip), vehicle: saline): 66 % of control

Which results are given for `C=CC(=O)N1CN(C(=O)C=C)CN(C(=O)C=C)C1`?
T/C (dose: 3.13 mg/kg/injection, schedule: Q01DX003 (ip), vehicle: saline with Tween-80): 62 % of control; T/C (dose: 6.25 mg/kg/injection, schedule: Q01DX003 (ip), vehicle: saline with Tween-80): 93 % of control

For `O=CC(S)CO` (centres undefined), which T/C [9] is on record?
The T/C was 119 % of control.

And the T/C [10]?
Its T/C is 96 % of control.

And the T/C (dose: 400.0 mg/kg/injection, schedule: Q04DX003 (ip), vehicle: suspension in saline)?
The T/C was 107 % of control.

What does the source list for `N=C(N)Sc1ccccn1`?
T/C [11]: 77 % of control; T/C [7]: 112 % of control; T/C [8]: 65 % of control

How did the T/C [11] turn out when `CN1CCN(CCCN2c3ccccc3Sc3ccc(C(F)(F)F)cc32)CC1` was run?
The T/C was 79 % of control.

Which T/C [2] does the source give for `CNC(=O)ON(C(C)=O)C(=O)NC` here?
The T/C was 52 % of control.

And the T/C [11]?
Its T/C is 59 % of control.

And the T/C [7]?
Its T/C is 98 % of control.

With `OCC1OC(n2cnc3cncnc32)C(O)C1O` (centres undefined) as the molecule, how does the T/C [1] read?
Its T/C is 49 % of control.

What about the T/C [2] of the same molecule?
Its T/C is 48 % of control.

How did the T/C (dose: 9.0 mg/kg/injection, schedule: Q04DX003 (ip), vehicle: saline) turn out when `CC[C@](O)(C(=O)O)c1cc2n(c(=O)c1CO)Cc1cc3ccccc3nc1-2` was run?
Its T/C is 36 % of control.

Which T/C (dose: 48.0 mg/kg/injection, schedule: Q04DX003 (ip), vehicle: saline) does the source give for `NC(=O)c1ccc[n+](Cc2c(Cl)cccc2Cl)c1` here?
The T/C was 122 % of control.

How did the T/C (dose: 5.0 mg/kg/injection, schedule: Q04DX003 (ip), vehicle: Klucel (hydroxypropylcellulose) (HPC)) turn out when `NC(Cc1ccc(N(CCCl)CCCl)cc1)C(=O)O` (centres undefined) was run?
The T/C was 73 % of control.

With `O=c1[nH]cnc2n[nH]nc12` as the molecule, how does the T/C [5] read?
Its T/C is 67 % of control.

And the T/C [6]?
Its T/C is 67 % of control.

And the T/C (dose: 400.0 mg/kg/injection, schedule: Q04DX003 (ip), vehicle: Klucel (hydroxypropylcellulose) (HPC))?
Its T/C is 31 % of control.

Which results are given for `CC(=O)OCC1OC(n2ccc(N)nc2=O)C(OC(C)=O)C1OC(C)=O` (centres undefined)?
T/C [9]: 65 % of control and 89 % of control; T/C [10]: 56 % of control

What does the source list for `Cc1c(CNc2ccc(C(=O)NC(CC(=O)O)C(=O)O)cc2)ccc2nc(N)nc(N)c12` (centres undefined)?
T/C (dose: 3.0 mg/kg/injection, schedule: Q04DX003 (ip), vehicle: saline with Tween-80): 109 % of control; T/C (dose: 6.0 mg/kg/injection, schedule: Q04DX003 (ip), vehicle: saline with Tween-80): 153 % of control; T/C (dose: 12.0 mg/kg/injection, schedule: Q04DX003 (ip), vehicle: saline with Tween-80): 92 % of control
